Consider 10 compounds from patent US6825170B2, “6-O-acyl ketolide antibacterials” (Ortho-McNeil Pharmaceutical, Inc., priority 2001, dated 2004).

Values after ≈ are worked out from the molar mass of the structure shown.

Common to all, as to experiment: MIC, microdilution broth method (NCCLS)
Holding throughout (format): cell-based
Conditions in all cases: 35° C., 16-20 hours

The subject of one assay is E. faecalis ATCC29212. A digest of the protocol: (§1)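 MIC taken from visual growth relative to compound-free wells in each tray. Incubation: 35° C for 16-20 h, cation-adjusted Mueller-Hinton broth, two-fold dilution series, ~5×10^4 CFU/well.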
The test system of the next assay is S. aureus ATCC29213. A digest of the protocol: as §1
In another assay the test system is E. coli OC2605. A digest of the protocol:
as §1

The next assay deals with H. influenzae ATCC49247. Summed up: as §1
In another assay the test system is S. pneumoniae ATCC49619. A digest of the protocol: as §1

For the compound `CCC1OC(=O)C(C)C(=O)C(C)C(OC2OC(C)CC(N(C)C)C2O)C(C)(OC(=O)n2cccc2)CC(C)C(=O)C(C)C2NC(=O)OC12C` (centres unmarked) [Compound 2], in the assay on E. faecalis ATCC29212, the “MIC (C: E. faecalis ATCC29212)” value amounted to 8 µg/mL (≈ 11.6 µM). The “MIC (B: S. aureus ATCC29213)” value in the assay on S. aureus ATCC29213 is more than 16 µg/mL. Also, the “MIC (A: E. coli OC2605)” value against E. coli OC2605 is more than 16 µg/mL. The “MIC (E: H. influenzae ATCC49247)” value against H. influenzae ATCC49247 is more than 16 µg/mL. The “MIC (D: S. pneumoniae ATCC49619)” value with S. pneumoniae ATCC49619 stood at 0.5 µg/mL (≈ 0.723 µM).
In the case of `CCC1OC(=O)C(C)C(=O)C(C)C(OC2OC(C)CC(N(C)C)C2O)C(C)(OC(=O)n2ccc(C=O)c2)CC(C)C(=O)C(C)C2NC(=O)OC12C` (centres unmarked) [Compound 3], the “MIC (C: E. faecalis ATCC29212)” value with E. faecalis ATCC29212 was 4 µg/mL (≈ 5.56 µM). Further, the “MIC (B: S. aureus ATCC29213)” value against S. aureus ATCC29213 was more than 16 µg/mL. Besides, the “MIC (A: E. coli OC2605)” value against E. coli OC2605 is more than 16 µg/mL. Further, the “MIC (E: H. influenzae ATCC49247)” value against H. influenzae ATCC49247 is more than 16 µg/mL. In addition, in the assay on S. pneumoniae ATCC49619, the “MIC (D: S. pneumoniae ATCC49619)” value stood at 1 µg/mL (≈ 1.39 µM).
In the case of `CCC1OC(=O)C(C)C(=O)C(C)C(OC2OC(C)CC(N(C)C)C2O)C(C)(OC(=O)n2ccc(C#N)c2)CC(C)C(=O)C(C)C2NC(=O)OC12C` (centres unmarked) [Compound 4], in the assay on E. faecalis ATCC29212, the “MIC (C: E. faecalis ATCC29212)” value was determined as 4 µg/mL (≈ 5.58 µM). Besides, the “MIC (B: S. aureus ATCC29213)” value against S. aureus ATCC29213 is more than 16 µg/mL. Besides, the “MIC (A: E. coli OC2605)” value in the assay on E. coli OC2605 was more than 16 µg/mL. Also, the “MIC (E: H. influenzae ATCC49247)” value against H. influenzae ATCC49247 was more than 16 µg/mL. The “MIC (D: S. pneumoniae ATCC49619)” value with S. pneumoniae ATCC49619 stood at 1 µg/mL (≈ 1.4 µM).
In the case of `CCC1OC(=O)C(C)C(=O)C(C)C(OC2OC(C)CC(N(C)C)C2O)C(C)(OC(=O)NN)CC(C)C(=O)C(C)C2NC(=O)OC12C` (centres unmarked) [Compound 5], the “MIC (C: E. faecalis ATCC29212)” value with E. faecalis ATCC29212 was 4 µg/mL (≈ 6.09 µM). Also, the “MIC (B: S. aureus ATCC29213)” value with S. aureus ATCC29213 turned out to be 16 µg/mL (≈ 24.4 µM). Besides, the “MIC (A: E. coli OC2605)” value in the assay with E. coli OC2605 is more than 16 µg/mL. The “MIC (E: H. influenzae ATCC49247)” value against H. influenzae ATCC49247 came out at 8 µg/mL (≈ 12.2 µM). In addition, in the assay with S. pneumoniae ATCC49619, the “MIC (D: S. pneumoniae ATCC49619)” value turned out to be 0.5 µg/mL (≈ 0.761 µM).
`CCC1OC(=O)C(C)C(=O)C(C)C(OC2OC(C)CC(N(C)C)C2O)C(C)(OC(=O)OCC=Cc2ccccc2)CC(C)C(=O)C(C)C2NC(=O)OC12C` (centres unmarked) [Compound 6]: the “MIC (C: E. faecalis ATCC29212)” value against E. faecalis ATCC29212 came to 0.12 µg/mL (≈ 0.158 µM). Besides, the “MIC (B: S. aureus ATCC29213)” value in the assay with S. aureus ATCC29213 came to 0.12 µg/mL (≈ 0.158 µM). In addition, the “MIC (A: E. coli OC2605)” value in the assay on E. coli OC2605 worked out at 16 µg/mL (≈ 21.1 µM). Further, the “MIC (E: H. influenzae ATCC49247)” value in the assay with H. influenzae ATCC49247 was determined as 1 µg/mL (≈ 1.32 µM). For the same compound, in the assay on S. pneumoniae ATCC49619, the “MIC (D: S. pneumoniae ATCC49619)” value is 0.03 µg/mL (≈ 0.0395 µM).
For `CCC1OC(=O)C(C)C(=O)C(C)C(OC2OC(C)CC(N(C)C)C2O)C(C)(OC(=O)OCC=Cc2ccc(-c3ncccn3)cc2)CC(C)C(=O)C(C)C2NC(=O)OC12C` (centres unmarked) [Compound 7], the “MIC (C: E. faecalis ATCC29212)” value against E. faecalis ATCC29212 is 0.06 µg/mL (≈ 0.0717 µM). Further, the “MIC (B: S. aureus ATCC29213)” value against S. aureus ATCC29213 was found to be 0.12 µg/mL (≈ 0.143 µM). Further, the “MIC (A: E. coli OC2605)” value in the assay on E. coli OC2605 was 8 µg/mL (≈ 9.56 µM). Moreover, the “MIC (E: H. influenzae ATCC49247)” value against H. influenzae ATCC49247 is 2 µg/mL (≈ 2.39 µM). Further, the “MIC (D: S. pneumoniae ATCC49619)” value in the assay on S. pneumoniae ATCC49619 was 0.03 µg/mL (≈ 0.0358 µM).
As to `CCC1OC(=O)C(C)C(=O)C(C)C(OC2OC(C)CC(N(C)C)C2O)C(C)(OC(=O)OCC=Cc2ccc(-c3cccnn3)cc2)CC(C)C(=O)C(C)C2NC(=O)OC12C` (centres unmarked) [Compound 20], the “MIC (C: E. faecalis ATCC29212)” value with E. faecalis ATCC29212 is 0.06 µg/mL (≈ 0.0717 µM). The “MIC (B: S. aureus ATCC29213)” value with S. aureus ATCC29213 was found to be 0.12 µg/mL (≈ 0.143 µM). Besides, the “MIC (A: E. coli OC2605)” value with E. coli OC2605 worked out at 8 µg/mL (≈ 9.56 µM). For the same compound, the “MIC (E: H. influenzae ATCC49247)” value against H. influenzae ATCC49247 was determined as 2 µg/mL (≈ 2.39 µM). Moreover, in the assay on S. pneumoniae ATCC49619, the “MIC (D: S. pneumoniae ATCC49619)” value came out at 0.03 µg/mL (≈ 0.0358 µM).
`CCC1OC(=O)C(C)C(=O)C(C)C(OC2OC(C)CC(N(C)C)C2O)C(C)(OC(=O)OCc2ccc(-c3ncccn3)cc2)CC(C)C(=O)C(C)C2NC(=O)OC12C` (centres unmarked) [Compound 77]: in the assay with E. faecalis ATCC29212, the “MIC (C: E. faecalis ATCC29212)” value amounted to 0.06 µg/mL (≈ 0.074 µM). Also, the “MIC (B: S. aureus ATCC29213)” value in the assay on S. aureus ATCC29213 was found to be 0.12 µg/mL (≈ 0.148 µM). For the same compound, in the assay with E. coli OC2605, the “MIC (A: E. coli OC2605)” value stood at 8 µg/mL (≈ 9.87 µM). Moreover, the “MIC (E: H. influenzae ATCC49247)” value against H. influenzae ATCC49247 was determined as 2 µg/mL (≈ 2.47 µM). The “MIC (D: S. pneumoniae ATCC49619)” value against S. pneumoniae ATCC49619 was determined as 0.03 µg/mL (≈ 0.037 µM).
On to `CCC1OC(=O)C(C)C(=O)C(C)C(OC2OC(C)CC(N(C)C)C2O)C(C)(OC(=O)OCC#Cc2ccc(-c3ncccn3)cc2)CC(C)C(=O)C(C)C2NC(=O)OC12C` (centres unmarked) [Compound 80], for which, in the assay with E. faecalis ATCC29212, the “MIC (C: E. faecalis ATCC29212)” value amounted to 0.12 µg/mL (≈ 0.144 µM). The “MIC (B: S. aureus ATCC29213)” value in the assay on S. aureus ATCC29213 was determined as 0.25 µg/mL (≈ 0.299 µM). Further, in the assay with E. coli OC2605, the “MIC (A: E. coli OC2605)” value came to 16 µg/mL (≈ 19.2 µM). The “MIC (E: H. influenzae ATCC49247)” value against H. influenzae ATCC49247 was found to be 2 µg/mL (≈ 2.4 µM). In addition, the “MIC (D: S. pneumoniae ATCC49619)” value against S. pneumoniae ATCC49619 is 0.03 µg/mL (≈ 0.0359 µM).
Taken in the same sequence, the figures for `CCC1OC(=O)C(C)C(=O)C(C)C(OC2OC(C)CC(N(C)C)C2O)C(C)(OC(=O)OCC#Cc2ccc(-c3cnccn3)cc2)CC(C)C(=O)C(C)C2NC(=O)OC12C` (centres unmarked) [Compound 86] were 0.06 µg/mL (≈ 0.0719 µM), 0.12 µg/mL (≈ 0.144 µM), 8 µg/mL (≈ 9.58 µM), 2 µg/mL (≈ 2.4 µM) and 0.03 µg/mL (≈ 0.0359 µM).
